Reference: ChEMBL document CHEMBL3734667 (Bioorg Med Chem, 2015)

Columns and labels:
[1] = Cytotoxicity against human MT4 cells assessed as cell viability after 96 hrs by MTT assay; assay type: cell-based
[2] = Cytotoxicity against MDBK cells assessed as cell viability after 48 to 96 hrs by MTT assay; assay type: cell-based, Bos taurus; conditions: cattle
[3] = Cytotoxicity against BHK cells assessed as cell viability after 48 to 96 hrs by MTT assay; assay type: cell-based, Mesocricetus auratus; conditions: hamster
[4] = Cytotoxicity against african green monkey Vero 76 cells assessed as cell viability after 48 to 96 hrs by crystal violet staining method; assay type: cell-based; conditions: chlorocebus sabaeus
[5] = system: Bovine viral diarrhea virus 1; assay: Antiviral activity against BVDV infected in MDBK cells assessed as inhibition of virus-induced cytopathogenicity after 3 to 4 days by MTT assay; assay type: functional, organism-based; conditions: Bovine viral diarrhea virus isolates and strains
Yellow fever virus = assay: Antiviral activity against YFV infected in BHK-21 cells assessed as inhibition of virus-induced cytopathogenicity after 3 to 4 days by MTT assay; assay type: functional, organism-based
Coxsackievirus B5 = assay: Antiviral activity against human CVB5 infected in african green monkey Vero76 cells assessed as inhibition of virus-induced cytopathogenicity after 3 days by plaque reduction assay; assay type: functional, organism-based; conditions: Enterovirus B, Vero 76, 72 h
Human orthopneumovirus = assay: Antiviral activity against human RSV infected in african green monkey Vero76 cells assessed as inhibition of virus-induced cytopathogenicity after 5 days by plaque reduction assay; assay type: functional, organism-based; conditions: human respiratory syncytial virus, Vero 76, 120 h
Poliovirus 1 = assay: Antiviral activity against Human poliovirus 1 Sabin infected in african green monkey Vero76 cells assessed as inhibition of virus-induced cytopathogenicity by plaque reduction assay; assay type: functional, organism-based; conditions: Enterovirus C, Vero 76
[6] = Selectivity index, ratio of CC50 for african green monkey Vero76 cells to EC50 for human CVB5; set-up: species or system Coxsackievirus B5, Vero 76
[7] = Selectivity index, ratio of CC50 for african green monkey Vero76 cells to EC50 for human RSV; set-up: species or system human respiratory syncytial virus, Vero 76
[8] = system: Human immunodeficiency virus 1; assay: Antiviral activity against HIV-1 infected in MT4 cells assessed as inhibition of virus-induced cytopathogenicity after 4 days by MTT assay; assay type: functional, organism-based; conditions: Human immunodeficiency virus 1, MT4, 96 h
[9] = system: Vesicular stomatitis virus; assay: Antiviral activity against VSV; assay type: functional, organism-based
Vaccinia virus = assay: Antiviral activity against Vaccinia virus; assay type: functional, organism-based; conditions: Orthopoxvirus vaccinia
[10] = Selectivity index, ratio of CC50 for MDBK cells to EC50 for BVDV; set-up: species or system Bovine viral diarrhea virus 1
[11] = system: Mammalian orthoreovirus 1; assay: Antiviral activity against Reo-1 virus infected in BHK-21 cells assessed as inhibition of virus-induced cytopathogenicity after 3 to 4 days by MTT assay; assay type: functional, cell-based; conditions: Mammalian orthoreovirus 1, BHK-21
Human alphaherpesvirus 1 = assay: Antiviral activity against HSV1; assay type: functional, organism-based

| SMILES | CC50 at 96 h [1] [µM] | CC50 [2] [µM] | CC50 [3] [µM] | CC50 [4] [µM] | EC50 [5] [µM] | EC50 (Yellow fever virus) [µM] | EC50 (Coxsackievirus B5) [µM] | EC50 (Human orthopneumovirus) [µM] | EC50 (Poliovirus 1) [µM] | Ratio CC50/EC50 [6] | Ratio CC50/EC50 [7] | EC50 [8] [µM] | EC50 [9] [µM] | EC50 (Vaccinia virus) [µM] | Ratio CC50/EC50 [10] | EC50 [11] [µM] | EC50 (Human alphaherpesvirus 1) [µM] |
| --- | --- | --- | --- | --- | --- | --- | --- | --- | --- | --- | --- | --- | --- | --- | --- | --- | --- |
| Cc1ccc2nn(-c3ccc(OCC(C)(C)C(=O)O)cc3)nc2c1 | ≥ 100 | 69 | ≥ 100 | 60 | > 100 | > 100 | 5 | 15 | > 100 | 12 | 4 | > 100 | > 100 | > 100 |  |  |  |
| CC(C)(COc1ccc(-n2nc3ccc(Cl)cc3n2)cc1)C(=O)O | 94 | 52 | 47 | 40 | 21 | > 100 | 1.7 | 12 | > 100 | 23.53 | 3.33 | > 100 | > 100 | > 100 | 2.47 |  |  |
| CC(C)(CCCOc1ccc(-n2nc3ccc(Cl)cc3n2)cc1)C(=O)O | 51 | 32 | 16 | 15 | > 100 | > 100 | 0.7 | 2 | > 100 | 31.43 | 7.5 | > 100 | > 100 | > 100 |  |  |  |
| CC(=O)Nc1ccc(-n2nc3ccccc3n2)cc1 | 66 | 100 | > 100 | > 100 | 70 | > 100 | 40 | > 100 | > 100 | >2.5 |  | > 100 | > 100 | > 100 | 1.43 | 83 |  |
| COc1c(C)c2c(c(O)c1C/C=C(\C)CCC(=O)O)C(=O)OC2 [MYCOPHENOLIC ACID] |  |  | > 100 |  | > 100 | > 100 | > 100 | 0.6 | > 100 |  | 33.3 |  |  | 2 |  | > 100 | > 100 |
| Cc1ccc(C)c(OCCCC(C)(C)C(=O)O)c1 [GEMFIBROZIL] | > 100 | > 100 | > 100 | > 100 | 90 | > 100 | > 100 | > 100 | > 100 |  |  |  |  |  | >1.11 |  |  |
| COc1ccc2nn(-c3ccc(OC(C)(C)C(=O)O)cc3)nc2c1 | > 100 | ≥ 100 | > 100 | 90 | > 100 | > 100 | > 100 | 20 | > 100 |  | 4.5 | > 100 | > 100 | > 100 |  |  |  |
| Clc1c(Cl)c(Cl)c2nn(C3CCCO3)nc2c1Cl (stereo unspecified) | > 100 | ≥ 100 | 30 | 12 | 12 | > 100 |  |  | > 100 |  |  | > 100 | > 100 |  | 8.33 | > 100 | > 100 |
| CC(CC(=O)O)n1nc2c(Cl)c(Cl)c(Cl)c(Cl)c2n1 (stereo unspecified) | > 100 | 70 | 33 | 25 | 49 | > 100 | 25 | 8 |  |  | 3.12 | > 100 | > 100 | > 100 | 1.43 |  |  |
